Source: patent publication US8048889B2, “3,4-disubstituted coumarin and quinolone compounds” (XTL Biopharmaceuticals Ltd., priority 2005, dated 2011)

Key:
Huh-Luc-Neo cells = assay: CellTiter-Glo Cell Viability Assay; assay type: cell-based, human; conditions: for Toxicity % Inhibition at 50 uM (2 doses): inhibition of cell viability at 50 uM, conditions as in Replicon RNA Assay; for Toxicity % Inhibition at 100 um (1 dose): inhibition of cell viability at 100 um, conditions as in Replicon Luciferase Assay (48 h)
Description: (§1) Day 2 Reagent Preparation and Luciferase Assay: The Bright-Glo Luciferase Assay Buffer (Promega) is thawed and equilibrated to room temperature prior to use. The lyophilized Bright-Glo Luciferase Assay Substrate is equilibrated to room temperature prior to use. 10 ml of Bright-Glo Luciferase Assay Buffer is transferred to 1 vial of Bright-Glo Luciferase Assay Substrate bottle and mixed by gently with a Vortex. 100 ul of Bright-Glo Luciferase Assay reagent (Bright-Glo Luciferase Assay Buffer+Bright-Glo Luciferase Assay Substrate Mixture) is added to each well. The well contents are mixed for 5 min. on an orbital shaker at room temperature to induce cell lysis and the luminescence is then measured using a luminometer. The data is analyzed and IC50s are determined using GraphPad Prism 4 software. Hits validated in the Replicon Luciferase assay have IC50s<8.0 μM and show<30% inhibition of Cell Viability at a compound concentration of 100 μM (Cell Titer Glow Assay, cell viability assay conditions identical to HCV Replicon Luciferase Assay conditions).
(§2) Day 3, Quantitative PCR Based Measurement of HCV RNA (Taqman Assay): Quantitative PCR analysis to measure HCV RNA expression from cDNA synthesized on Day 2 is performed using the ABI 9700 HT Sequence Detection System (Applied Biosystems) as previously described (Lohman et al, Science 285, 110-113, 1999). The data is analyzed and IC50s are determined using GraphPad Prism 4 software. Hits validated in the Replicon RNA Assay have IC50s<8.0 μM and show <30% inhibition of Cell Viability at a compound concentration of 50 μM (Cell Titer Glow Assay, cell viability assay conditions identical to HCV Replicon RNA Assay conditions).
(§3) Day 0, Cell Seeding and Compound Treatment: Huh-Luc-Neo Cells are seeded at 25,000/well in an opaque-walled 96 plate with Growth Medium (DMEM phenol red free+PS+2 mM glutamine; 100 ul/well). The compounds to be tested for inhibition of cell viability are added to the experimental wells (10 μl/well at 10× assay concentration) and the cells are then incubated (5% CO2, 37° C.) for 48 h.
Day 2, Reagent Preparation and Assay: The CellTiter-Glo Buffer is thawed and equilibrated to room temperature prior to use. The lyophilized CellTiter-Glo Substrate is equilibrated to room temperature prior to use. 10 ml of CeliTiter-Glo Buffer is transferred to 1 vial of CellTiter-Glo Substrate and mixed by gently with a Vortex. 100 μl of CellTiter-Glo Assay reagent (CellTiter-Glo Buffer+CellTiter-Glo Substrate Mixture) is added to each well. The well contents are mixed for 5 min. on an orbital shaker at room temperature to induce cell lysis and the luminescence is then measured using a luminometer.

[1] = system: HCV Replicon (HCV IRES driven luciferase reporter in Huh-Luc-Neo cells); assay: HCV Replicon Luciferase Assay; assay type: cell-based; conditions: Hepatitis C virus, 48 h, no unit in table, hit threshold in μM
Description: (§4) The identification of inhibitors of HCV replication and/or proliferation has been facilitated by the development of a cell based system to study HCV replication and assay for HCV inhibitors. Inhibition of HCV replication may be performed using the HCV Replicon Assay developed in the laboratories of Bartenschlager (Lohman et al, Science 285, 110-113, 1999) and Rice (Blight et al, Science 290, 1972-1974, 2000). The assay is performed using the Huh-Luc-Neo cell line (Lohman et al, Science 285, 110-113, 1999). Huh-Luc-Neo cells are a human hepatoma cell line (Huh-7) stably expressing a bi-cistronic subgenomic replicon containing the HCV IRES in which the structural proteins of HCV had been deleted and replaced by a construct containing sequences coding for the firefly luciferase reporter gene, the neomycin selectable marker and the EMCV IRES to direct expression of a truncated HCV genome expressing the […] NS3, NS4A, NS4B, NS5A, and NS5B. HCV targets through which inhibitors could act to inhibit replication include the NS3 protease, the helicase/ATPase, NS5A, the NS5B- RNA dependent RNA polymerase, and the HCV IRES.
(§5) Expression of HCV IRES driven luciferase reporter activity and HCV RNA is measured to obtain indirect and direct measures of replication of HCV RNA respectively. Inhibitors of HCV replication and/or proliferation are determined by initially identifying molecules that inhibit expression of the HCV IRES driven luciferase reporter in this HCV Replicon Luciferase Assay. Cell viability assays and control cell based luciferase assays are then run on hits identified in the HCV Replicon Luciferase Assay to eliminate cytoxic compounds and non-specific compounds which act by inhibiting the luciferase enzyme.
as §3, with “0” for “0,”, “μl/well).” for “ul/well).”, “tested” for “tested for inhibition of cell viability”
as §1

[2] = system: HCV Replicon (HCV RNA in Huh-Luc-Neo cells); assay: HCV Replicon RNA Assay (Taqman); assay type: cell-based, Hepatitis C virus; conditions: compound added day 0 and day 1, no unit in table, hit threshold in μM; for IC50: Hepatitis C virus
Description: as §4, §5
as §3, with “μl/well).” for “ul/well).”, “tested” for “tested for inhibition of cell viability”, “C.).” for “C.) for 48 h.”
Day 1, Media Change and Compound Treatment: 24 hours after the initial compound treatment the cell culture media is aspirated from the wells and fresh Growth Medium is added (DMEM phenol red free+PS+2 mM glutamine; 100 μl/well). The compounds to be tested are then added to the appropriate experimental wells (10 μl/well at 10 × assay concentration) and the cells are then incubated (5% CO2, 37° C.) for an additional 24 hrs.
Day 2, RNA Isolation and cDNA Synthesis: The cells are washed with 1× Phosphate Buffered Saline (PBS) once.
as §2

| SMILES | Toxicity % Inhibition at 50 uM (2 doses) (Huh-Luc-Neo cells) [%] | Toxicity % Inhibition at 100 um (1 dose) (Huh-Luc-Neo cells) [%] | IC50 [1] [µM] | IC50 [2] [µM] | TaqMan IC50 [2] |
| --- | --- | --- | --- | --- | --- |
| O=c1oc2ccccc2c(OCc2cccc(C(F)(F)F)c2)c1Cc1cccc(C(F)(F)F)c1 [VQ_31711] | 4.3 | 4.6 | 5.16 | 0.12 |  |
| O=c1oc2ccccc2c(OCc2ccc(C(F)(F)F)cc2)c1Cc1ccc(C(F)(F)F)cc1 [VQ_31712] | 10.0 | 16.6 | 4.92 | > 30 |  |
| Cc1ccc(COc2c(Cc3ccc(C)cc3)c(=O)oc3ccccc23)cc1 [VQ_31715] | 13.4 | 53.4 | 2.8 | 0.55 |  |
| COc1ccc2c(OCc3cccc(C)c3)c(Cc3cccc(C)c3)c(=O)oc2c1 [VQ_31729] | 5.1 | 3.0 | 3.53 | 0.36 |  |
| COc1ccc2c(OCc3cccc(Cl)c3)c(Cc3cccc(Cl)c3)c(=O)oc2c1 [VQ_31734] | 0.7 | 4.3 | 3.84 | 0.67 |  |
| COc1ccc2c(OCc3ccccc3C)c(Cc3ccccc3C)c(=O)oc2c1 [VQ_31738] | 6.1 | 23.6 | 5.44 | 0.21 |  |
| COc1ccc2c(OCc3ccc(F)cc3F)c(Cc3ccc(F)cc3F)c(=O)oc2c1 [VQ_31744] | 7.0 | 10.9 | 4.5 | 0.28 |  |
| COc1ccc2c(OCc3ccc(F)c(F)c3)c(Cc3ccc(F)c(F)c3)c(=O)oc2c1 [VQ_31748] | 4.9 | 10.0 | 5.38 | 1.97 |  |
| COc1ccc2c(OCc3cccc(C(F)(F)F)c3)c(Cc3cccc(C(F)(F)F)c3)c(=O)oc2c1 [VQ_31754] | 1.9 | 2.5 | 5.45 | 5.35 |  |
| COc1ccc2c(OCc3ccc(C(F)(F)F)cc3)c(Cc3ccc(C(F)(F)F)cc3)c(=O)oc2c1 [VQ_31758] | 2.6 | 14.7 | 6.16 | 5.24 |  |
| COc1ccc2c(OCc3ccc(C)cc3)c(Cc3ccc(C)cc3)c(=O)oc2c1 [VQ_31763] | 6.5 | 4.6 | 8.29 | 0.43 |  |
| Cc1cc2oc(=O)c(Cc3ccc(F)cc3F)c(OCc3ccc(F)cc3F)c2cc1C [VQ_32806] | 8.3 | 16.5 | 5.57 | 1.4 |  |
| Cc1ccc(COc2c(Cc3ccc(C)cc3)c(=O)n(C)c3ccccc23)cc1 [VQ_32833] | 20.7 | 34.6 | 2.89 | 0.58 |  |
| Cc1ccc(COc2c(Cc3ccc(C)cc3)c(=O)n(Cc3ccc(C)cc3)c3ccccc23)cc1 [VQ_33645] | 17.2 | 21.5 | 2.33 | > 30 |  |
| Cn1c(=O)c(Cc2ccc(Cl)c(Cl)c2)c(OCc2ccc(Cl)c(Cl)c2)c2ccccc21 [VQ_34453] | 12.2 | 24.6 | 8.5 | 1.97 |  |
| O=c1[nH]c2ccccc2c(OCc2ccc(F)cc2)c1Cc1ccc(F)cc1 [VQ_35018] | 12.3 | 10.0 | 1 |  | Inactive |
| Cc1cccc(COc2c(Cc3cccc(C)c3)c(=O)[nH]c3ccccc23)c1 [VQ_35027] | 12.5 | 4.6 | 2.1 |  | Inactive |
| COc1ccc(-c2c(OCc3cccc(C(F)(F)F)c3)c3ccccc3oc2=O)cc1 [VQ_36312] | 40.8 | 5.0 | 3.06 | 0.89 |  |
| COC(=O)CNCc1c(Nc2ccc(C)cc2)c2ccccc2oc1=O [VQ_36341] | 31.2 | 14.6 | 0.28 | 0.4 |  |
| Cc1ccc(Nc2c(CNc3ncccn3)c(=O)oc3ccccc23)cc1 [VQ_36343] | 37.9 | 21.1 | 0.13 | 0.16 |  |
| COc1ccc(Nc2c(/C=N/C3CCCCC3)c(=O)oc3ccccc23)cc1 [VQ_36467] | 13.9 | 22.8 | 51.1 | 0.46 |  |
| CCCCCC/N=C/c1c(Nc2ccc(OC)cc2)c2ccccc2oc1=O [VQ_36468] | 16.3 | 40.7 | 43.3 | 0.71 |  |
| COc1ccc(Nc2c(/C=N/c3nc4ccccc4s3)c(=O)oc3ccccc23)cc1 [VQ_36469] | 3.3 | 14.7 | 53.6 | 4.16 |  |
| COc1ccc(Nc2c(/C=N/c3ncccn3)c(=O)oc3ccccc23)cc1 [VQ_36470] | −2.7 | 12.5 | 59.9 | 4.08 |  |
| COc1ccc(Nc2c(/C=N/c3ccc(Cl)cc3)c(=O)oc3ccccc23)cc1 [VQ_36471] | 15.2 | 9.8 | 0.04 | 1.78 |  |
